The values that follow come from patent US20180194762A1 (Pharmacyclics LLC, priority 2017, published 2018).

Molecules are shown by their SMILES. Read-outs that look alike come from different tables or passages of the source. Some results are limits rather than exact numbers.

Holding throughout (assay type): biochemical
One assay deals with T1, Btk (Homo sapiens, UniProt Q06187).
T1 construct: purified from insect cells as a full-length construct containing a N-terminal 6X-His tag; His6 (N); made in house; host or cells: insect cells (Method C)
T1 sequence (Q06187 whole entry): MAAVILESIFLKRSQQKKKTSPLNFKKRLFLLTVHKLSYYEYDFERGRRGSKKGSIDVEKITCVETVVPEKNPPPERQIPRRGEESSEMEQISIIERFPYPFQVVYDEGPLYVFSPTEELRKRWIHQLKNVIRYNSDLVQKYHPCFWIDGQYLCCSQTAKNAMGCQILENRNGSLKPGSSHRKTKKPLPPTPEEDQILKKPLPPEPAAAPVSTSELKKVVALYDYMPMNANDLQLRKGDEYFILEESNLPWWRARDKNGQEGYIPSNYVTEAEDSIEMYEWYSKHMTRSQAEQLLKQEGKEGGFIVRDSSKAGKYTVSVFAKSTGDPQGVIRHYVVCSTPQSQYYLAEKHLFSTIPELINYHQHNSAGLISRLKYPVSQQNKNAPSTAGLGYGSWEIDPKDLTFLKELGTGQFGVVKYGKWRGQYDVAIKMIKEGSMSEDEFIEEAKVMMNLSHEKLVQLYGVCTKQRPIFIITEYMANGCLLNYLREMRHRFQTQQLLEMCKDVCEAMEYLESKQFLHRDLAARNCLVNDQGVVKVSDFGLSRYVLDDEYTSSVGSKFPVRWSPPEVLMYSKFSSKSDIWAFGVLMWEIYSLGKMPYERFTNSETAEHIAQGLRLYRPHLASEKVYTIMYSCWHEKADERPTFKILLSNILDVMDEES
Put plainly: Btk in vitro inhibitory activity (one of Method A TR-FRET, Method B electrophoretic mobility shift, Method C radiometric filter binding). Put shortly: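 Three alternative formats were used. A radiometric filter-binding read used 8 nM full-length His-BTK with 0.2 mg/mL poly(Glu-Tyr) 4:1 (C); microfluidic separation of 1 μM FAM-peptide by 1 nM BTK gave IC50 from 12-point curves (B); TR-FRET at Km ATP, 0.5 nM Btk, gave Ki(app)-derived IC50 (A).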
For orientation: A gel shift assay detects complexes by their altered migration in electrophoresis.

The next assay deals with T2, TEC (Homo sapiens, UniProt P42680).
T2 sequence (P42680 1-631): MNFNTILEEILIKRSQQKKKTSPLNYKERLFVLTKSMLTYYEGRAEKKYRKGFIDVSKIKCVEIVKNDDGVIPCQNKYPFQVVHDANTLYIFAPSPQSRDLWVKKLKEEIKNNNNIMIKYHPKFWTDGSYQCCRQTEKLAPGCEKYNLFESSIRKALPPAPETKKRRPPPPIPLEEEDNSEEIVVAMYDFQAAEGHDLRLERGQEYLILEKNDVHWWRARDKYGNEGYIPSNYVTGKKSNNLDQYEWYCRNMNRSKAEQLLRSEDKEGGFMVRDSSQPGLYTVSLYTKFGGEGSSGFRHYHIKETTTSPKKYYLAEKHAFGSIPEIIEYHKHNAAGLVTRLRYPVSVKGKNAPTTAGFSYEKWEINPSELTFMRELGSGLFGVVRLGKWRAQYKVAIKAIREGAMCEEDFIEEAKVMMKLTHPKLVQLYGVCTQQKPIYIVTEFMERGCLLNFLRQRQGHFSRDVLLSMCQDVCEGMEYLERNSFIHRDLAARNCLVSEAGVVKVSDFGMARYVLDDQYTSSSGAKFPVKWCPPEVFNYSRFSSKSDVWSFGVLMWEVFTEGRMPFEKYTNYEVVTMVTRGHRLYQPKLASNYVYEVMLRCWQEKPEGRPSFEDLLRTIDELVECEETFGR
Put plainly: Inhibition of a panel of kinases (in vitro HotSpot kinase assay, 33P-ATP, 1 μM ATP). Conditions: for IC50: HotSpot kinase assay, 1 μM ATP; for TEC/Btk: ratio of TEC IC50 to Btk IC50 (selectivity). Put shortly: (§1)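 At 1 μM ATP spiked with 33P-ATP, substrate phosphorylation by the purified enzymes gives the extent of inhibition.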

A further assay has as its target T3, panel of kinases (Homo sapiens, UniProt P51813).
T3 sequence (P51813 1-675): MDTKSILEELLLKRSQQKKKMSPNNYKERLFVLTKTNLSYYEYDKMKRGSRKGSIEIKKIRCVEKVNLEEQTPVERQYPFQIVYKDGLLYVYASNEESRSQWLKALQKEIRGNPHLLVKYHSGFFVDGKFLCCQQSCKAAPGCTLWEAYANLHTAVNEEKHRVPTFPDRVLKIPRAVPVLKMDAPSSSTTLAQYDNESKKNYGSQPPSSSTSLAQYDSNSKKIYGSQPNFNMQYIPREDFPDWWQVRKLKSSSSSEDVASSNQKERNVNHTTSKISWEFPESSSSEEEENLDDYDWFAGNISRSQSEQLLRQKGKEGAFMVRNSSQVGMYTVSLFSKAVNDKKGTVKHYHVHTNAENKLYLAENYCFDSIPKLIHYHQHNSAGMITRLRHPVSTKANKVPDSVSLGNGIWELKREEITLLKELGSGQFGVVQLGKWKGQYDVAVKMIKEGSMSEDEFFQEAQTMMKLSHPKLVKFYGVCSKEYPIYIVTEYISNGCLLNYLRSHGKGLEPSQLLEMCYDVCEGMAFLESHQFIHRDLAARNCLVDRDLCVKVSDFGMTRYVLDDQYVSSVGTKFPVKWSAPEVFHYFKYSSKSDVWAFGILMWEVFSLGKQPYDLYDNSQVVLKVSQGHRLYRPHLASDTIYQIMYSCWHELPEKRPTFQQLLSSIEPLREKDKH
Put plainly: Inhibition of a panel of kinases (in vitro HotSpot kinase assay, 33P-ATP, 1 μM ATP), other kinases. The settings on record: BMX wild-type, read-out: BMX-WT IC50. Put shortly:
as §1

The mark [1] stands for this setting: method is one of A, B or C, not stated which, read-out: IC50 values against Btk.
Setting [2] is: wild-type Btk, read-out: Btk-WT IC50.

Take `C=CC(=O)N1CCC[C@H](Nc2n[nH]c3nccc(-c4ccc(CNC(=O)c5nc(C(C)(C)C)no5)c(F)c4)c23)C1` [Example 169, 3-tert-butyl-N-{[2-fluoro-4-(3-{[(3S)-1-(prop-2-enoyl)piperidin-3-yl]amino}-1H-pyrazolo[3,4-b]pyridin-4-yl)phenyl]methyl}-1,2,4-oxadiazole-5-carboxamide]: the IC50 (commonly the concentration that gives 50% inhibition) on Btk (setting [1]) was below 10 nM; on Btk (setting [2]), 3.72 nM; at TEC, 1750 nM; on panel of kinases, 1820 nM. Further, on TEC, the TEC/Btk was determined as 470.
As for `C=CC(=O)N1CC[C@@H](Nc2n[nH]c3nccc(-c4ccc(CNC(=O)c5ccc(C)cc5)c(F)c4)c23)C1` [Compound 34, (R)—N-(4-(3-((1-acryloylpyrrolidin-3-yl)amino)-1H-pyrazolo[3,4-b]pyridin-4-yl)-2-fluorobenzyl)-4-methylbenzamide], the IC50 stood at 1.76 nM on Btk (setting [2]), 55 nM against TEC and 16 nM at panel of kinases. For the same compound, the TEC/Btk at TEC is given as 31.
Regarding `CN(C)C(=O)N1CC[C@@H](Nc2n[nH]c3nccc(-c4ccc(CNC(=O)c5coc(C6CC6)n5)c(F)c4)c23)C1` [Example 329, 2-cyclopropyl-N-{[4-(3-{[(3R)-1-(dimethylcarbamoyl)pyrroli-din-3-yl]amino}-1H-pyrazolo[3,4-b]pyridin-4-yl)-2-fluorophenyl]methyl}-1,3-oxazole-4-carboxamide], the IC50 on Btk (setting [2]) was 307 nM; against TEC, 5720 nM; on panel of kinases it was 5900 nM.
As for `CN1CCCN([C@@H]2CCN(c3n[nH]c4nccc(-c5ccc(CNC(=O)c6nc(C(C)(C)C)no6)c(F)c5)c34)C2)C1=O` [Example 241, 3-tert-butyl-N-[(2-fluoro-4-{3-[(3R)-3-(3-methyl-2-oxo-1,3-diazinan-1-yl)pyrrolidin-1-yl]-1H-pyrazolo[3,4-b]pyridin-4-yl}phenyl)methyl]-1,2,4-oxadiazole-5-carboxamide], the IC50 on Btk (setting [2]) came out at 4.73 nM; on TEC, 5560 nM; at panel of kinases it was 5010 nM. The TEC/Btk at TEC was found to be 1175.
Regarding `C=CC(=O)N1CC[C@@H](Nc2n[nH]c3nccc(-c4ccc(CNC(=O)c5ccc6oc(C)nc6c5)c(F)c4)c23)C1` [Example 380, (R)-N-{[2-fluoro-4-(3-{[1-(prop-2-enoyl)pyrrolidin-3-yl]amino}-1H-pyrazolo[3,4-b]pyridin-4-yl)phenyl]methyl}-2-methyl-1,3-benzoxazole-5-carboxamide], the IC50 on Btk (setting [2]) was determined as 336 nM; on TEC, 662 nM; on panel of kinases it was 101 nM.
Taken in the same sequence, the figures for `CNC1CCN(c2n[nH]c3nccc(-c4ccc(CNC(=O)c5nc(C(C)(C)C)no5)c(F)c4)c23)C1` (stereo not shown) [Example 333, 3-tert-butyl-N-[(2-fluoro-4-{3-[3-(methylamino)pyrrolidin-1-yl]-1H-pyrazolo[3,4-b]pyridin-4-yl}phenyl)methyl]-1,2,4-oxadiazole-5-carboxamide] were 1.26 nM, 4360 nM and 4470 nM.
Turning to `C[C@@H](NC(=O)c1noc(C(C)(C)C)n1)c1ccc(-c2ccnc3[nH]nc(N[C@@H]4CC[C@H](C)N(C(=O)N(C)C)C4)c23)cc1F` [Example 191, (2S,5R)-5-{[4-(4-{(1R)-1-[(5-tert-butyl-1,2,4-oxadiazole-3-carbonyl)amino]ethyl}-3-fluorophenyl)-1H-pyrazolo[3,4-b]pyridin-3-yl]amino}-N,N,2-trimethylpiperidine-1-carboxamide], the results for the IC50 at Btk (setting [2]), on TEC and at panel of kinases were 0.329 nM, 340 nM and 310 nM, respectively. Besides, the TEC/Btk at TEC is 1033.
In the case of `C[C@H]1CC[C@@H](Nc2n[nH]c3nccc(-c4ccc(CNC(=O)c5nc(C(C)(C)C)no5)c(F)c4)c23)CN1C(=O)CO` [Example 420, 3-tert-butyl-N-{[2-fluoro-4-(3-{[(3R,6S)-1-(hydroxyacetyl)-6-methylpiperidin-3-yl]amino}-1H-pyrazolo[3,4-b]pyridin-4-yl)phenyl]methyl}-1,2,4-oxadiazole-5-carboxamide], the IC50 on Btk (setting [2]) worked out at 0.379 nM; against TEC it was 291 nM; at panel of kinases, 1240 nM.
Taken in the same sequence, the figures for `CC(=O)N[C@@H]1CCN(c2n[nH]c3nccc(-c4ccc([C@@H](C)NC(=O)c5cc(C(C)(C)O)on5)c(F)c4)c23)C1` [Example 349, N-[(1R)-1-(4-{3-[(3R)-3-acetamidopyrrolidin-1-yl]-1H-pyrazolo[3,4-b]pyridin-4-yl}-2-fluorophenyl)ethyl]-5-(2-hydroxypropan-2-yl)-1,2-oxazole-3-carboxamide] were 3.99 nM, 1480 nM and 1330 nM.
Taken in the same sequence, the figures for `CC(=O)N[C@@H]1CCN(c2n[nH]c3nccc(-c4ccc(CNC(=O)c5noc(C(C)C)n5)c(F)c4)c23)C1` [Example 369, N-[(4-{3-[(3R)-3-acetamidopyrrolidin-1-yl]-1H-pyrazolo[3,4-b]pyridin-4-yl}-2-fluorophenyl)methyl]-5-(propan-2-yl)-1,2,4-oxadiazole-3-carboxamide] were 4.66 nM, 1480 nM and 1140 nM.
Regarding `CCC(=O)N1CC(Nc2n[nH]c3nccc(-c4ccc(CNC(=O)c5noc(C(C)(C)C)n5)c(F)c4)c23)C1` [Example 130, 5-tert-butyl-N-[(2-fluoro-4-{3-[(1-propanoylazetidin-3-yl)amino]-1H-pyrazolo[3,4-b]pyridin-4-yl}phenyl)methyl]-1,2,4-oxadiazole-3-carboxamide], the IC50 on Btk (setting [1]) was below 10 nM; on Btk (setting [2]) it was 1.28 nM; against TEC it was 1330 nM; on panel of kinases, 3580 nM. Further, the TEC/Btk at TEC was 1039.
The matching figures for `C[C@H]1CC[C@@H](Nc2n[nH]c3nccc(-c4ccc(CNC(=O)c5cc(C(C)(C)C)on5)c(F)c4)c23)CN1C(=O)N(C)C` [Example 145, (2S,5R)-5-{[4-(4-{[(5-tert-butyl-1,2-oxazol-3-yl)formamido]methyl}-3-fluorophenyl)-1H-pyrazolo[3,4-b]pyridin-3-yl]amino}-N,N,2-trimethylpiperidine-1-carboxamide]: below 10 nM, 1.93 nM, 1060 nM, 1040 nM and 549.
The matching figures for `C=CC(=O)N1CC[C@@H](Nc2n[nH]c3nccc(-c4ccc(CNC(=O)c5nc(C(C)(C)C)no5)c(F)c4)c23)C1` [Example 83, 3-tert-butyl-N-{[2-fluoro-4-(3-{[(3R)-1-(prop-2-enoyl)pyrrolidin-3-yl]amino}-1H-pyrazolo[3,4-b]pyridin-4-yl)phenyl]methyl}-1,2,4-oxadiazole-5-carboxamide]: below 10 nM, 0.056 nM, 28 nM, 52 nM and 493.
The matching figures for `C=CC(=O)N1CC[C@@H](Nc2n[nH]c3nccc(-c4ccc(CNC(=O)c5noc(C(C)(C)C)n5)cc4)c23)C1` [Example 175, 5-tert-butyl-N-{[4-(3-{[(3R)-1-(prop-2-enoyl)pyrrolidin-3-yl]amino}-1H-pyrazolo[3,4-b]pyridin-4-yl)phenyl]methyl}-1,2,4-oxadiazole-3-carboxamide]: below 10 nM, 0.189 nM, 55 nM, 201 nM and 289.
